According to patent publication US11236069B2, “KIF18A inhibitors” (AMGEN INC., priority 2018, dated 2022):

These molecules were tested against Recombinant human KIF18A (1-467 His-tagged) protein (Homo sapiens (Human), UniProt Q8NI77) (assay: KIF18A Enzyme Assay: microtubule-stimulated ATPase activity (ADP-Glo)). Conditions: read-out: KIF18A ATPase IC50.
Chain of Recombinant human KIF18A (1-467 His-tagged) protein (Q8NI77 1-467): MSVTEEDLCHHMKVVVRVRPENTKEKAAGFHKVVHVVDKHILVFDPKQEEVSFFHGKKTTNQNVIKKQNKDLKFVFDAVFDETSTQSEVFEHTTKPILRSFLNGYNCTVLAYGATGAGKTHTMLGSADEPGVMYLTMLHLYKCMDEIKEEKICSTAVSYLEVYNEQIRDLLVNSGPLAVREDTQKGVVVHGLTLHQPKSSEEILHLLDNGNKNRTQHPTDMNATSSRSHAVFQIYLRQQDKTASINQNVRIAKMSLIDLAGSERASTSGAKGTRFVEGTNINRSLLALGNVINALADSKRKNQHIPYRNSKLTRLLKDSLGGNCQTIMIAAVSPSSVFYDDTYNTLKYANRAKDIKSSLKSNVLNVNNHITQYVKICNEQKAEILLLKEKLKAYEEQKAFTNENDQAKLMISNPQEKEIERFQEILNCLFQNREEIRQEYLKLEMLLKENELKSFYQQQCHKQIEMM
Chain of Recombinant human KIF18A (1-467 His-tagged) protein (P02550 whole entry partner): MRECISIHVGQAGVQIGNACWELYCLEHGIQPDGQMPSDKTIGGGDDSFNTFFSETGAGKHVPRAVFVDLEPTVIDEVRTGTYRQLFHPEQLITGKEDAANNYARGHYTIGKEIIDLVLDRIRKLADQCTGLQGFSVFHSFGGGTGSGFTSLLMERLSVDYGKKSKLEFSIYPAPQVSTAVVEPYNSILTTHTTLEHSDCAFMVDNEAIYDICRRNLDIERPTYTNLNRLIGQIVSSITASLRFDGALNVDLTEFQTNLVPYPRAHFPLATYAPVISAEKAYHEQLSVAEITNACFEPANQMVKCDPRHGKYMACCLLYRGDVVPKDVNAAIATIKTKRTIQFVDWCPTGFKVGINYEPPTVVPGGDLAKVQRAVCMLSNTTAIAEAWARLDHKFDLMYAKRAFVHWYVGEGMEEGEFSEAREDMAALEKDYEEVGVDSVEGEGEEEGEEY
Chain of Recombinant human KIF18A (1-467 His-tagged) protein (P02554 whole entry partner): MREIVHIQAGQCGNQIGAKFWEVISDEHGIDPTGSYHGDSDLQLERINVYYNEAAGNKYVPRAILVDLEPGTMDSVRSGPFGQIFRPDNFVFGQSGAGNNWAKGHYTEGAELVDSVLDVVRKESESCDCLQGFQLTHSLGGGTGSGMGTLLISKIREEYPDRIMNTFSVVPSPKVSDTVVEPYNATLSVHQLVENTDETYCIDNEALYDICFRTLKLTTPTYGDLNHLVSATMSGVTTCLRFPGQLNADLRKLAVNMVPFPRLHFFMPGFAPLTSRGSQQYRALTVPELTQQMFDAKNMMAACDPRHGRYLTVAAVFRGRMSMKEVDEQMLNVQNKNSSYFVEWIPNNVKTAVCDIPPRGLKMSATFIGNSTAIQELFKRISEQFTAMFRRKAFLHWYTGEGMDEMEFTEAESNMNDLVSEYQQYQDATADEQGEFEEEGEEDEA
Excerpt: KIF18A Enzyme Assay: Microtubule-stimulated ATPase activity assay is used to measure KIF18A enzyme activity after treatment with compound. Compounds were 2-fold serially diluted in DMSO (Sigma Inc) over 22-point concentration range. […] The assay measures ADP formed from the ATPase reaction.

| Structure (SMILES) | IC50 [nM] |
| --- | --- |
| Cc1cc(NC(=O)c2ccc(NS(=O)(=O)[C@H](C)CO)cc2N2CCC3(CC2)CC3)nc(N2CCC(F)(F)CC2)n1 [Example 5-1, (R)-N-(2-(4,4-Difluoropiperidin-1-yl)-6-methylpyrimidin-4-yl)-4-((2-hydroxy-1-methylethyl)sulfonamido)-2-(6-azaspiro[2.5]octan-6-yl)benzamide] | 62 |

Same assay, conditions: read-out: KIF18A ATPase IC50; 30 nM KIF18A, 30 μg/mL pig microtubules, ATP at Km 75 μM, ADP-Glo luminescence

| Structure (SMILES) | IC50 [nM] |
| --- | --- |
| C[C@H]1CN(c2nccc(NC(=O)c3ccc(NS(=O)(=O)CCO)cc3N3CCC4(CC3)CC4)n2)CCO1 [Example 11-1, (S)-4-((2-Hydroxyethyl)sulfonamido)-N-(2-(2-methylmorpholino)pyrimidin-4-yl)-2-(6-azaspiro[2.5]octan-6-yl)benzamide] | 37 |
| Cc1cc(NC(=O)c2ccc(NS(=O)(=O)C(C)(C)CO)cc2N2CCC3(CC2)CC3)nc(N2CCC(F)(F)CC2)n1 [Example 6-20, N-(2-(4,4-Difluoropiperidin-1-yl)-6-methylpyrimidin-4-yl)-4-((2-hydroxy-1,1-dimethylethyl)sulfonamido)-2-(6-azaspiro[2.5]octan-6-yl)benzamide] | 49 |
| Cc1cc(NC(=O)c2ccc(NS(=O)(=O)CCO)cc2N2CCC3(CC2)CC3)nc(N2CCC[C@@](C)(F)C2)n1 [Example 11-55, (R)-N-(2-(3-Fluoro-3-methylpiperidin-1-yl)-6-methylpyrimidin-4-yl)-4-((2-hydroxyethyl)sulfonamido)-2-(6-azaspiro[2.5]octan-6-yl)benzamide] | 41 |
| Cc1cc(NC(=O)c2ccc(NS(=O)(=O)CCO)cc2N2CCC3(CC2)CC3)nc(N2CCO[C@H](C)C2)n1 [Example 3, (R)-4-((2-Hydroxyethyl)sulfonamido)-N-(6-methyl-2-(2-methylmorpholino)pyrimidin-4-yl)-2-(6-azaspiro[2.5]octan-6-yl)benzamide] | 57 |
| CC[S@](=N)(=O)c1ccc(C(=O)Nc2cc(C)nc(N3CCC(F)(F)CC3)n2)c(N2CCC3(CC2)CC3)c1 (single isomer, unassigned) [Example 19-4, 2-(6-Azaspiro[2.5]octan-6-yl)-N-(2-(4,4-difluoro-1-pieridinyl)-6-methyl-4-pyrimidinyl)-4-(R-ethylsulfonimidoyl)benzamide] | 35 |
| Cc1cc(NC(=O)c2ccc(NS(=O)(=O)CCO)cc2N2CCC3(CC2)CC3)nc(N2CC3C[C@]3(O)C2)n1 (stereo partly drawn) [Example 11-32, N-(2-((1R)-1-Hydroxy-3-azabicyclo[3.1.0]hexan-3-yl)-6-methylpyrimidin-4-yl)-4-((2-hydroxyethyl)sulfonamido)-2-(6-azaspiro[2.5]octan-6-yl)benzamide] | 193 |
| Cc1cc(NC(=O)c2ccc(S(=O)(=O)C3CNC3)cc2N2CCC3(CC2)CC3)nc(N2CCC(F)(F)CC2)n1 [Example 21, 4-(Azetidin-3-ylsulfonyl)-N-(2-(4,4-difluoropiperidin-1-yl)-6-methylpyrimidin-4-yl)-2-(6-azaspiro[2.5]octan-6-yl)benzamide] | 40 |
| Cc1cc(NC(=O)c2ccc(S(=O)(=O)C3COC3)cc2N2CCC3(CC2)CC3)nc(N2CCC(F)(F)CC2)n1 [Example 14-1, N-(2-(4,4-Difluoropiperidin-1-yl)-6-methylpyrimidin-4-yl)-4-(oxetan-3-ylsulfonyl)-2-(6-azaspiro[2.5]octan-6-yl)benzamide] | 182 |
| Cc1cc(NC(=O)c2ccc(NS(=O)(=O)CCCO)cc2N2CCC3(CC2)CC3)nc(N2CCO[C@H](C)C2)n1 [Example 6-8, (R)-4-((3-Hydroxypropyl)sulfonamido)-N-(6-methyl-2-(2-methylmorpholino)pyrimidin-4-yl)-2-(6-azaspiro[2.5]octan-6-yl)benzamide] | 107 |
| CCS(=O)(=O)Nc1ccc(C(=O)Nc2cc(C)nc(N3CCO[C@H](C)C3)n2)c(N2CCC3(CC2)CC3)c1 [Example 6-6, (R)-4-(Ethylsulfonamido)-N-(6-methyl-2-(2-methylmorpholino)pyrimidin-4-yl)-2-(6-azaspiro[2.5]octan-6-yl)benzamide] | 67 |
| Cc1cc(NC(=O)c2ccc(NS(=O)(=O)C3COC3)cc2N2CCC3(CC2)CC3)nc(N2CCC(F)(F)CC2)n1 [Example 6-12, N-(2-(4,4-Difluoropiperidin-1-yl)-6-methylpyrimidin-4-yl)-4-(oxetane-3-sulfonamido)-2-(6-azaspiro[2.5]octan-6-yl)benzamide] | 40 |
| Cc1cc(NC(=O)c2ccc(NS(=O)(=O)CCO)cc2N2CCC3(CC2)CC3)nc(N2CCC(C#N)CC2)n1 [Example 11-33, N-(2-(4-Cyanopiperidin-1-yl)-6-methylpyrimidin-4-yl)-4-((2-hydroxyethyl)sulfonamido)-2-(6-azaspiro[2.5]octan-6-yl)benzamide] | 88 |
| Cc1cc(NC(=O)c2ccc(NS(=O)(=O)CCO)cc2N2CCC3(CC2)CC3)cc(N2CCC(F)(F)CC2)n1 [Example 6-30, N-(2-(4,4-Difluoropiperidin-1-yl)-6-methylpyridin-4-yl)-4-((2-hydroxyethyl)sulfonamido)-2-(6-azaspiro[2.5]octan-6-yl)benzamide] | 38.4 |
| Cc1cc(NC(=O)c2ccc(NS(=O)(=O)C3CCOC3)cc2N2CCC3(CC2)CC3)nc(N2CCC(F)(F)CC2)n1 (stereo in doubt) [Example 11-73, (R)-N-(2-(4,4-Difluoropiperidin-1-yl)-6-methylpyrimidin-4-yl)-2-(6-azaspiro[2.5]octan-6-yl)-4-((tetrahydrofuran)-3 sulfonamido)benzamide] | 79 |
| O=C(Nc1ccnc(N2CCC(F)(F)CC2)n1)c1ccc(NS(=O)(=O)CCO)cc1N1CCC2(CC1)CC2 [Example 11-57, N-(2-(4,4-Difluoropiperidin-1-yl)pyrimidin-4-yl)-4-((2-hydroxyethyl)sulfonamido)-2-(6-azaspiro[2.5]octan-6-yl)benzamide] | 22 |
| O=C(Nc1ccnc(N2CCC(F)(F)CC2)c1F)c1ccc(NS(=O)(=O)CCO)cc1N1CCC2(CC1)CC2 [Example 11-63, N-(2-(4,4-Difluoropiperidin-1-yl)-3-fluoropyridin-4-yl)-4((2-hydroxyethyl)sulfonamido)-2-(6-azaspiro[2.5]octan-6-yl)benzamide] | 22 |
| Cc1cc(NC(=O)c2ccc(NS(=O)(=O)CCO)cc2N2CCC3(CC2)CC3)nc(OC(C)C)n1 [Example 11-79, 4-((2-Hydroxyethyl)sulfonamido)-N-(2-isopropoxy-6-methylpyrimidin-4-yl)-2-(6-azaspiro[2.5]octan-6-yl)benzamide] | 57 |
| Cc1cc(NC(=O)c2ccc(NS(=O)(=O)CCO)cc2N2CCC3(CC2)CC3)nc(N2CC(C)(O)C2)n1 [Example 11-15, N-(2-(3-Hydroxy-3-methylazetidin-1-yl)-6-methylpyrimidin-4-yl)-4-((2-hydroxyethyl)sulfonamido)-2-(6-azaspiro[2.5]octan-6-yl)benzamide] | 935 |
| O=C(Nc1ccnc(N2CCC(F)(F)CC2)c1)c1ccc(S(=O)(=O)NCCO)cc1N1CCC2(CC1)CC2 [Example 17, N-(2-(4,4-Difluoropiperidin-1-yl)pyridin-4-yl)-4-(N-(2-hydroxyethyl)sulfamoyl)-2-(6-azaspiro[2.5]octan-6-yl)benzamide] | 23 |
| C[C@@H]1CN(c2nccc(NC(=O)c3ccc(NS(=O)(=O)[C@@H](C)CO)cc3N3CCC4(CC3)CC4)n2)CCO1 [Example 6-24-1, 4-(((S)-2-Hydroxy-1-methylethyl)sulfonamido)-N-(2-((R)-2-methylmorpholino)pyrimidin-4-yl)-2-(6-azaspiro[2.5]octan-6-yl)benzamide] | 17.4 |
| Cc1cc(NC(=O)c2ccc(S(=O)(=O)N[C@H](C)CO)cc2N2CCC3(CC2)CC3)nc(N2CCC(F)(F)CC2)n1 [Example 17-6, (R)-N-(2-(4,4-Difluoropiperidin-1-yl)-6-methylpyrimidin-4-yl)-4-(N-(1-hydroxypropan-2-yl)sulfamoyl)-2-(6-azaspiro[2.5]octan-6-yl)benzamide] | 127 |
| Cc1cc(NC(=O)c2ccc(S(=O)(=O)NCCO)cc2N2CCC3(CC2)CC3)nc(N2CC(F)(F)C2)n1 [Example 17-5, N-(2-(3,3-Difluoroazetidin-1-yl)-6-methylpyrimidin-4-yl)-4-(N-(2-hydroxyethyl)sulfamoyl)-2-(6-azaspiro[2.5]octan-6-yl)benzamide] | 133 |
| Cc1cc(NC(=O)c2ccc(NS(=O)(=O)CCO)cc2N2CCC3(CC2)CC3)nc(N2CC[C@H]3C[C@H]3C2)n1 [Example 11-43, N-(2-((1R,6R)-3-Azabicyclo[4.1.0]heptan-3-yl)-6-methylpyrimidin-4-yl)-4-((2-hydroxyethyl)sulfonamido)-2-(6-azaspiro[2.5]octan-6-yl)benzamide] | 35 |
| Cc1cc(NC(=O)c2ccc(NS(=O)(=O)CCO)cc2N2CCC3(CC2)CC3)nc(N2CCC[C@@H]3C[C@@H]32)n1 [Example 11-44, N-(2-((1S,6R)-2-Azabicyclo[4.1.0]heptan-2-yl)-6-methylpyrimidin-4-yl)-4-((2-hydroxyethyl)sulfonamido)-2-(6-azaspiro[2.5]octan-6-yl)benzamide] | 33 |
| Cc1cc(NC(=O)c2ccc(NS(=O)(=O)CCO)cc2N2CCC3(CC2)CC3)nc(N2CCC3CC32)n1 (stereo not shown) [Example 11-28, N-(2-(2-Azabicyclo[3.1.0]hexan-2-yl)-6-methylpyrimidin-4-yl)-4-((2-hydroxyethyl)sulfonamido)-2-(6-azaspiro[2.5]octan-6-yl)benzamide] | 59 |
| Cc1cc(NC(=O)c2ccc(NS(=O)(=O)C[C@@H](C)O)cc2N2CCC3(CC2)CC3)nc(N2CCC(F)(F)CC2)n1 [Example 6-32-1, (R)-N-(2-(4,4-Difluoropiperidin-1-yl)-6-methylpyrimidin-4-yl)-4-((2-hydroxypropyl)sulfonamido)-2-(6-azaspiro[2.5]octan-6-yl)benzamide] | 112 |
| Cc1cc(NC(=O)c2ccc(NS(=O)(=O)CCO)cc2N2CCC3(CC2)CC3)nc(N2CCOC3(CC3)C2)n1 [Example 11-47, 4-((2-Hydroxyethyl)sulfonamido)-N-(6-methyl-2-(4-oxa-7-azaspiro[2.5]octan-7-yl)pyrimidin-4-yl)-2-(6-azaspiro[2.5]octan-6-yl)benzamide] | 95 |
